Values belong to the compound of their own block, whether it stands above or below them. Activity calls are given as the source filed them.
Legend:
[1] = molecular target: Opioid receptors; mu & delta (Homo sapiens, UniProt P41143+P35372); assay: OPRM1-OPRD1 heterodimer agonist potency – cell-based, luminescence, dose response (AID 588407); type: functional
[2] = molecular target: 5-hydroxytryptamine receptor 5A (Homo sapiens, UniProt P47898); assay: Counterscreen for agonists of OPRM1-OPRD1 heterodimerization: luminescence-based cell-based high throughput dose response assay to identify agonists of 5-hydroxytryptamine (serotonin) 5A receptor (HTR5A). [Related pubchem assays (depositor defined):AID504326, AID504355, AID504692, AID504904, AID504905]; type: functional
5-hydroxytryptamine receptor 5A, sequence (P47898 whole entry): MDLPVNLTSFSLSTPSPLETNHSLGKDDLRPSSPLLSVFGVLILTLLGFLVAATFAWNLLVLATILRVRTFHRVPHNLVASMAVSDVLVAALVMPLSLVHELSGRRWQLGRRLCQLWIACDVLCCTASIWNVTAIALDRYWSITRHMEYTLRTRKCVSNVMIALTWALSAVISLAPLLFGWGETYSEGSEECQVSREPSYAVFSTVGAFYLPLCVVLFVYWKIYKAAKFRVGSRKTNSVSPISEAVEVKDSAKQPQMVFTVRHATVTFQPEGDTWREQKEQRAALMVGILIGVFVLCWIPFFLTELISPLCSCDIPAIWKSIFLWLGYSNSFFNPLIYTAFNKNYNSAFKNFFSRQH

[3] = molecular target: Delta-type opioid receptor (Homo sapiens, UniProt P41143); assay: Counterscreen for agonists of heterodimerization of the mu 1 (OPRM1) and delta 1 (OPRD1) opioid receptors: Luminescence-based cell-based high throughput dose response assay to identify agonists of OPRD1 homodimerization. [Related pubchem assays (depositor defined):AID504326, AID504355, AID504692, AID504904, AID504905]; type: functional
Delta-type opioid receptor, sequence (P41143 whole entry): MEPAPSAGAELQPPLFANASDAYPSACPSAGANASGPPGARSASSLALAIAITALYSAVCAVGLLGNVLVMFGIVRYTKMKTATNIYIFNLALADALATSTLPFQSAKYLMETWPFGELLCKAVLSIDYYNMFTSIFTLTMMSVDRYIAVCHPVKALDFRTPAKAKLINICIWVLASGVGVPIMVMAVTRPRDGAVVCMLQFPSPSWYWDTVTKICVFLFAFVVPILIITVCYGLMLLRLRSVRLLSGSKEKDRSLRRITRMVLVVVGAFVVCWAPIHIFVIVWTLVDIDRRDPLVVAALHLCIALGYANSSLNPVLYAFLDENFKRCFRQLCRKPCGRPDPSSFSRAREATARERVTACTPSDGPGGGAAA

Mu-type opioid receptor = Mu-type opioid receptor (Homo sapiens, UniProt P35372); assay: Counterscreen for agonists of heterodimerization of the mu 1 (OPRM1) and delta 1 (OPRD1) opioid receptors: Luminescence-based cell-based high throughput dose response assay to identify agonists of OPRM1 homodimerization.; type: functional;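 also: U2OS cells expressing OPRM1 and beta-arrestin as split beta-galactosidase partners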
Mu-type opioid receptor, sequence (P35372 whole entry): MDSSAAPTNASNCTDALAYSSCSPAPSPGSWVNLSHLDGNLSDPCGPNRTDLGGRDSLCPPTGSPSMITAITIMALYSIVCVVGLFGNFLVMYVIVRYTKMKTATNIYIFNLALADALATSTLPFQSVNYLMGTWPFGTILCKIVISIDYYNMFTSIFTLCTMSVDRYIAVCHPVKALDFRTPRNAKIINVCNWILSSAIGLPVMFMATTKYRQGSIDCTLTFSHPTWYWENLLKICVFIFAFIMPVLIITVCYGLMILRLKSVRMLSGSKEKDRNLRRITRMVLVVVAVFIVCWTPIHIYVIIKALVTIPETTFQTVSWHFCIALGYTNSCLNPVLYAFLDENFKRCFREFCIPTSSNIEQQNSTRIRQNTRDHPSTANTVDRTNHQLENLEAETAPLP

[4] = molecular target: T1, Short transient receptor potential channel 4 (Mus musculus, UniProt Q9QUQ5); assay: calcium entry via TRPC4 opening agents – cell-based, HEK293 TRPC4/mu-opioid, Fluo-4 calcium, dose response (AID 434937); type: functional
T1 sequence (Q9QUQ5 whole entry): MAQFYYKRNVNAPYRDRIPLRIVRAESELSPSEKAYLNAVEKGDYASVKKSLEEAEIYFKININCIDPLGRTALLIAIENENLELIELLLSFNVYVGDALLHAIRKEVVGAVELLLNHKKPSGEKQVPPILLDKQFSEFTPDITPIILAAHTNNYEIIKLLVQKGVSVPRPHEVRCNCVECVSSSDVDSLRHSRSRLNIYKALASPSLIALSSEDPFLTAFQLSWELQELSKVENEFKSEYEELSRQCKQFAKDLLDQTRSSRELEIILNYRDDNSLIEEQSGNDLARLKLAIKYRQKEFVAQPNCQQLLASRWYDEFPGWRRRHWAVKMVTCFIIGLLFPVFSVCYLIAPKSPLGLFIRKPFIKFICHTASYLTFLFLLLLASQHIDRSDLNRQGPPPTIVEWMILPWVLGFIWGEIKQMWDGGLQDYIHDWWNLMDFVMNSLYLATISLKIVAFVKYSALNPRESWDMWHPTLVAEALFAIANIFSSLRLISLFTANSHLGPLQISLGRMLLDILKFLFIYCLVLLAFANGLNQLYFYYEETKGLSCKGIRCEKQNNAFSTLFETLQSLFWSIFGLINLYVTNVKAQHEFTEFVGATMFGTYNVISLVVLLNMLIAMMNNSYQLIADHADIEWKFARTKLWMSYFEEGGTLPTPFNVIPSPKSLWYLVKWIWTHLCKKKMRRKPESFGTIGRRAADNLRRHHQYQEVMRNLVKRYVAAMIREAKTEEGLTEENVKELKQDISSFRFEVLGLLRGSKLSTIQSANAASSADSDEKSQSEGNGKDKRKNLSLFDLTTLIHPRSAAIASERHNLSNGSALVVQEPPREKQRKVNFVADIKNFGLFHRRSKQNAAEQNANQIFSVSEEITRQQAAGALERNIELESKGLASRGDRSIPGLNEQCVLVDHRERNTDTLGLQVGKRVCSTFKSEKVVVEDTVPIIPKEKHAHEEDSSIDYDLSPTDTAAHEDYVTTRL

Hexokinase-1 = molecular target: T2, Hexokinase-1 (Homo sapiens, UniProt P19367); assay: SAR analysis of small molecule inhibitors of hexokinase domain containing I (HKDC1) in the hexokinase 1 selectivity assay. [Related pubchem assays (depositor defined):AID493160, AID493190]; type: functional
T2 sequence (P19367 whole entry): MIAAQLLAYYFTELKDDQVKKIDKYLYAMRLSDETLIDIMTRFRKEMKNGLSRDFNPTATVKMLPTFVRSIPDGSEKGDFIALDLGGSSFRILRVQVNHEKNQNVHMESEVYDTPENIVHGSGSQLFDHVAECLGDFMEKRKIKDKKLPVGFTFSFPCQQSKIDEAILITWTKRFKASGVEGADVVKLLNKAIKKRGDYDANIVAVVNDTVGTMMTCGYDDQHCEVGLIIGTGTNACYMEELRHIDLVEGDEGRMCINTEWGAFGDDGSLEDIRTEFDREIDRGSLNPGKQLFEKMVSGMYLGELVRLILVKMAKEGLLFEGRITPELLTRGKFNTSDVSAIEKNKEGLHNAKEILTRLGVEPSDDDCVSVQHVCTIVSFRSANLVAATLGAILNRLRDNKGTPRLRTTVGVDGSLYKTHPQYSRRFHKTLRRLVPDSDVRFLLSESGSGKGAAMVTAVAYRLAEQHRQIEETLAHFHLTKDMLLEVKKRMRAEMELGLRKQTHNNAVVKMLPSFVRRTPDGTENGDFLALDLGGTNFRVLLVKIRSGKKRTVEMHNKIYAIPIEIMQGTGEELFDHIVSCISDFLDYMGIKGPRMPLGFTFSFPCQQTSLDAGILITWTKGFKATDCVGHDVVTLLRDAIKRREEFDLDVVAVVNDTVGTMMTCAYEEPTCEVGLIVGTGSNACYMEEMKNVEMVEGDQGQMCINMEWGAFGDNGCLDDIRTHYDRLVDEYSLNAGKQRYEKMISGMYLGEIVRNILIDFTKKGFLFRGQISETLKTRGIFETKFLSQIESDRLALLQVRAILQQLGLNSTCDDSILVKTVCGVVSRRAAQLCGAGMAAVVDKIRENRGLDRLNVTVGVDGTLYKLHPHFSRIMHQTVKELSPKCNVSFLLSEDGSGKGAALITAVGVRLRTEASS

Hexokinase HKDC1 = molecular target: T3, Hexokinase HKDC1 (Homo sapiens, UniProt Q2TB90); assay: SAR analysis of small molecule inhibitors of hexokinase domain containing I (HKDC1). [Related pubchem assays (depositor defined):AID493160, AID493190]; type: functional
T3 sequence (Q2TB90 whole entry): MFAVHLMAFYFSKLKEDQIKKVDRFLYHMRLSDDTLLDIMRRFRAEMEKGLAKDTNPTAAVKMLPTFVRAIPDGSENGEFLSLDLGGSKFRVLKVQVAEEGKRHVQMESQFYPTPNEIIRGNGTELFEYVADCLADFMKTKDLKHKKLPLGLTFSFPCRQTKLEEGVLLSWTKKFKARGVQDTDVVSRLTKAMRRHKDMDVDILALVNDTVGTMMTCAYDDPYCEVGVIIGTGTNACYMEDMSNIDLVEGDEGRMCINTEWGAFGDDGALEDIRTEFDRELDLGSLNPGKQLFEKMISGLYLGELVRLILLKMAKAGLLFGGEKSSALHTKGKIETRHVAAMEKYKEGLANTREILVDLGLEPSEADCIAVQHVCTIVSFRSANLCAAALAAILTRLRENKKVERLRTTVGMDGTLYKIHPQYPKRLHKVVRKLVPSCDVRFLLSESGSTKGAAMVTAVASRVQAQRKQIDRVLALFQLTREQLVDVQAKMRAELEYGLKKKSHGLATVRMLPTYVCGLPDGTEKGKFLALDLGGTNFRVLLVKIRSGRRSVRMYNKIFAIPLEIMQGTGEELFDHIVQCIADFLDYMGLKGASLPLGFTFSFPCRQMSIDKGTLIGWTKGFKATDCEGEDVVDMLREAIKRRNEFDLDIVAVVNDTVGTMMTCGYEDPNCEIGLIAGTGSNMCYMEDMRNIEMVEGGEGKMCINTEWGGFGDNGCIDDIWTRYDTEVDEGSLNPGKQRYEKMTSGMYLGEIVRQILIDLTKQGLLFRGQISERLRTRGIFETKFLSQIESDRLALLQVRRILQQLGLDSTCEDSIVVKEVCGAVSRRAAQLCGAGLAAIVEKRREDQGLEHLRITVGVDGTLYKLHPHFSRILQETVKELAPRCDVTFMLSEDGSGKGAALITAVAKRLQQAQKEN

cells [5] = type: functional, cell-based
[6] = HEK-293T viability loss after treatment – luminescence, T-cell screen hits, cytotoxicity control for TCR NF-kB inhibitor project, dose response (AID 489026); type: functional, cell-based;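 also: cells exposed to compound about 14 hours before the viability readout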
[7] = molecular target: ATP-dependent molecular chaperone HSP82 (Candida albicans (strain WO-1) (Yeast), UniProt C4YTQ8); assay: steroid-induced GRE reporter decrease in yeast – S. cerevisiae, luminescence, Hsp90 inhibitor project, dose response (AID 2400); type: functional, cell-based;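 also: beta-galactosidase luminescence from glucocorticoid response element reporter as proxy for Hsp90 function; inhibitor potency where signal loss means Hsp90 inhibition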
ATP-dependent molecular chaperone HSP82, sequence (C4YTQ8 whole entry, the tested form may be a part): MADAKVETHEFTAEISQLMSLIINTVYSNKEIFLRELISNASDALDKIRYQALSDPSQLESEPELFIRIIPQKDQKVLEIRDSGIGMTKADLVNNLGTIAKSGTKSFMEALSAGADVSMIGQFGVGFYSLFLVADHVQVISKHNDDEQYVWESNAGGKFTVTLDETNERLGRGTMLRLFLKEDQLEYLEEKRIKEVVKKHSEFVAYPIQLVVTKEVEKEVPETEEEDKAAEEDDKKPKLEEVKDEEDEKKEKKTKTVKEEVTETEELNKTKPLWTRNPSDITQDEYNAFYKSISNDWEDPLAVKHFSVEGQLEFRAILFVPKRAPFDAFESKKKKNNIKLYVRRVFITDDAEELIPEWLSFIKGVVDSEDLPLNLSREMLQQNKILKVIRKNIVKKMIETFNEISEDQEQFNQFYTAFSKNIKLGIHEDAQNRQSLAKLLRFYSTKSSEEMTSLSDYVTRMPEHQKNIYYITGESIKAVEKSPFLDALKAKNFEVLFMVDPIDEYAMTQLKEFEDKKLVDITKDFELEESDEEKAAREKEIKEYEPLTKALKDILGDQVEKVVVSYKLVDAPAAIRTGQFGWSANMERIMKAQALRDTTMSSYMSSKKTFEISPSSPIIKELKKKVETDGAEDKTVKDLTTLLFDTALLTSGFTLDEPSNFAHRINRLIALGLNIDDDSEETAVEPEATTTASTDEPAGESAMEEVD

[8] = molecular target: Photoreceptor-specific nuclear receptor (Homo sapiens, UniProt Q9Y5X4); type: functional, cell-based;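 also: CHO-S cells with Gal4-NCOR and VP16-NR2E3 two-hybrid luciferase reporter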
Photoreceptor-specific nuclear receptor, sequence (Q9Y5X4 whole entry, the tested form may be a part): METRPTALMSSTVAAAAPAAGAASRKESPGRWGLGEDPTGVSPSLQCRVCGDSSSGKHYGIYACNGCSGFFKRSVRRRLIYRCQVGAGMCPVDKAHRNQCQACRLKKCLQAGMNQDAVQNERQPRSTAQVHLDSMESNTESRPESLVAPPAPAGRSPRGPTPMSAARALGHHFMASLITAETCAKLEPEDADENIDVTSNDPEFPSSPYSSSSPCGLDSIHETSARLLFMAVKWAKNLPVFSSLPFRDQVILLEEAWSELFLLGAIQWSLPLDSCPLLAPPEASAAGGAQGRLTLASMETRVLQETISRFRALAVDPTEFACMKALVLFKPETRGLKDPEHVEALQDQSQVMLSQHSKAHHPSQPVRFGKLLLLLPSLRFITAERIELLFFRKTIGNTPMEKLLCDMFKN

HEK293 = assay: EBV LMP1 TES2 canonical NF-kB signalling blockers – cell-based, HEK293, luciferase, cherry-pick, dose response (AID 588343); type: functional; details: Homo sapiens
cells [9] = type: functional, cell-based; remark: listed apart in the source
[10] = NIH-3T3 fibroblast cytotoxicity, dose response, cytotoxicity control, cell-based, fluorescence, Alamar Blue, secondary assay (AID 2327); type: functional;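 also: NIH-3T3 mouse fibroblasts cultured with fluconazole at 8 µg/mL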
[11] = fluconazole-exposed Candida albicans growth modulators – fluorescence, retest, confirmation (AID 2467); type: functional, cell-based
[12] = Counterscreen for activators of the function of SWI/SNF related, matrix associated, actin dependent regulator of chromatin, subfamily a, member 2 (SMARCA2, BRM): Luminescence-based cell-based high throughput dose response assay to identify non-selective compounds using the VP16 reporter assay.; type: functional
[13] = molecular target: SWI/SNF-related matrix-associated actin-dependent regulator of chromatin subfamily A member 2 (Homo sapiens, UniProt P51531); assay: Luminescence-based cell-based high throughput dose response assay to identify activators of the function of SWI/SNF related, matrix associated, actin dependent regulator of chromatin, subfamily a, member 2 (SMARCA2, BRM).; type: functional
SWI/SNF-related matrix-associated actin-dependent regulator of chromatin subfamily A member 2, sequence (P51531 whole entry): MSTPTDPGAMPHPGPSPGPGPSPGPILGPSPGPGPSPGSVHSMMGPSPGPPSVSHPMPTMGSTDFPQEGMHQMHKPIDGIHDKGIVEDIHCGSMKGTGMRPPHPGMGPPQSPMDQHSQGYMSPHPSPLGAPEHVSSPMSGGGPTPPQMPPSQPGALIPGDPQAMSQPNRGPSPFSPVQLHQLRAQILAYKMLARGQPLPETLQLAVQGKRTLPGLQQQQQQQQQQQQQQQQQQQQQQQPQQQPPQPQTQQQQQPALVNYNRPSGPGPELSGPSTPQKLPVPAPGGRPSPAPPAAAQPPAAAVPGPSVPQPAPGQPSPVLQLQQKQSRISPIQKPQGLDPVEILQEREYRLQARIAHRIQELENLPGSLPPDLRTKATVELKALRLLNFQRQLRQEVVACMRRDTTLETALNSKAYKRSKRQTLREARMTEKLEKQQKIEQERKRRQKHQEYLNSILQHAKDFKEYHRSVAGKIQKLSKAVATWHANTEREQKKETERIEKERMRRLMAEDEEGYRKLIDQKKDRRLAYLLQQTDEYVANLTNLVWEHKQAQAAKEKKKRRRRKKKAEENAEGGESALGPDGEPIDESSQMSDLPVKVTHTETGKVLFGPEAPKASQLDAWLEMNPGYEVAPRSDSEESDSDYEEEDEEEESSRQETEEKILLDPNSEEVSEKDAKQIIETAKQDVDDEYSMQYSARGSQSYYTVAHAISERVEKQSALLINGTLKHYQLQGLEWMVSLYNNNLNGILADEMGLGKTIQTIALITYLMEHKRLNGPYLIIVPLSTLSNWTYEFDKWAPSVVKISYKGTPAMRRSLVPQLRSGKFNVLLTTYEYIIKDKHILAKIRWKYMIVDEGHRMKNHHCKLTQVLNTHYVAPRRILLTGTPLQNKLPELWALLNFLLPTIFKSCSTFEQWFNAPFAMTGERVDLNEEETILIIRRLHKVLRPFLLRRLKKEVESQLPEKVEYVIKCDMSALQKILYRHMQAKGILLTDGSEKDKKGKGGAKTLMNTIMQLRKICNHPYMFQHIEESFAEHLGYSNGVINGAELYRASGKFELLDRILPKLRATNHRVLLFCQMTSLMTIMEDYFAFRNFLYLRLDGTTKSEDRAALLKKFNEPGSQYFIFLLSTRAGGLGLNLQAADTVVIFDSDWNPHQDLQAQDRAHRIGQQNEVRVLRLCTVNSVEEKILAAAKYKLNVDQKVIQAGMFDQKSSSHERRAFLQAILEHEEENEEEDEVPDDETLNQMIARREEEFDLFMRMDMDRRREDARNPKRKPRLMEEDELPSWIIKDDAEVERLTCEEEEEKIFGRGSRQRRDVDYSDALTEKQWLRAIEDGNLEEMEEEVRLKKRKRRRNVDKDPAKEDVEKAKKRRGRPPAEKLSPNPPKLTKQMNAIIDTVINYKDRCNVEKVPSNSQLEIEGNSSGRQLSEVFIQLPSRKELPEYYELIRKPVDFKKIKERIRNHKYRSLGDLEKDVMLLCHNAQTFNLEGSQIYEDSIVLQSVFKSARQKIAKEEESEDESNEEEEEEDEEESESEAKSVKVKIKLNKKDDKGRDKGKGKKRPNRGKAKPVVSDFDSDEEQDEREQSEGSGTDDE

[14] = molecular target: Dual specificity tyrosine-phosphorylation-regulated kinase 1A (Rattus norvegicus, UniProt Q63470); type: biochemical, Homo sapiens
[15] = molecular target: T4, Serine/threonine-protein phosphatase (Candida dubliniensis (strain CD36 / CBS 7987 / NCPF 3949 / NRRLY-17841) (Yeast), UniProt B9W6M3); assay: blockers of CaCl2-induced CDRE-lacZ signaling – S. cerevisiae, luminescence, secondary, dose response (AID 2388); type: functional, cell-based;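 also: yeast reporter cells carrying a calcineurin-responsive lacZ construct stimulated with calcium chloride; luminescent beta-galactosidase reporter signal in whole cells rather than isolated phosphatase activity; potency for inhibition where a drop in reporter signal means calcineurin blockade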
T4 sequence (B9W6M3 whole entry): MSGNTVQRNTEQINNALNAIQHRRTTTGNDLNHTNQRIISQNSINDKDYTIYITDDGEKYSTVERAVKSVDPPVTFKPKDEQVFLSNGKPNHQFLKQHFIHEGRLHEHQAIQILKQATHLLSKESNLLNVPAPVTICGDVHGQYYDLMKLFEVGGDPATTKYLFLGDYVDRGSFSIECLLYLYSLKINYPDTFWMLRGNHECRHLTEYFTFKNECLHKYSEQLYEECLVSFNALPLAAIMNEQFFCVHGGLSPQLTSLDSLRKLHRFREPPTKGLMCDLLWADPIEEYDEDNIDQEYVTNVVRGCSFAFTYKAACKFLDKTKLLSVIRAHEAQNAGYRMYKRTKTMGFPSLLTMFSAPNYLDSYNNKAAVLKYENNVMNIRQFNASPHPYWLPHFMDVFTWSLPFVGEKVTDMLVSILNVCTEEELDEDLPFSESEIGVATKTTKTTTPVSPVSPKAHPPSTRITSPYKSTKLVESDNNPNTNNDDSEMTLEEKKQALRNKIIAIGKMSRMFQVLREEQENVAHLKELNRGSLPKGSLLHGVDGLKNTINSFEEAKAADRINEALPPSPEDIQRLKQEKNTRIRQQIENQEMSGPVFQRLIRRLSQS

- EC50 [1]: > 0.1268 µM
- EC50 [2]: > 92.5 µM (inactive)
- EC50 [3]: 50 µM (inactive)
- EC50 (Mu-type opioid receptor): 13 µM (inactive)
- EC50 [4]: 0.376 µM (active)
SMILES: Cc1ccc(-n2cc(CNC(C)c3cnn(C)c3C)c(-c3ccc(F)cc3)n2)cc1 (centres undefined)

- IC50 (Hexokinase-1): > 80 µM (inactive)
- IC50 (Hexokinase HKDC1): > 80 µM (inactive)
SMILES: O=c1c2ccccc2nc(/C=C/c2cccc(O)c2)n1Cc1ccccc1

SMILES: COc1ccc2c(c1)/C(=C/c1cnc[nH]1)C(=O)N2 [SU-9516]
- EC50 (cells [5]): > 350 µM (not active)
- IC50 [6]: 71.8 µM (inactive)
- EC50 [7]: > 160 µM (inactive)
- IC50 [8]: 1.19 µM (active)
- AC50 (HEK293): 34.2 µM (active)
- EC50 (cells [9]): > 350 µM (not active)
- EC50 [10]: > 160 µM (inactive)
- EC50 [11]: 0.956 µM (active)
- EC50 [12]: > 91.2 µM (inactive)
- EC50 [13]: > 91.2 µM (inactive)
- AC50 [14]: 0.995 µM (active)
- EC50 [15]: > 180 µM (inactive)
